Reference: PubChem BioAssay AID2060508 (Molecular Pharmacology Branch, DTP, NCI, 2025)

These compounds were tested on 454973-116-R2-J3-PDC spheroids, viability, % test/control (assay: Anticancer human tumor 454973-116-R2-J3-PDC patient-derived pancreatic carcinoma cell line growth inhibition [GQUAD]). Conditions: second compound 0.316 µM; first compound 1 µM; stronger effect = lower value; spheroids with HUVEC and MSC.
How it was run: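 Tumor cells were grown as complex spheroids with HUVEC endothelial cells and mesenchymal stem cells as stroma. G-quadruplex stabilizers were combined with targeted agents over half-log dilutions from near the clinical Cmax, or from 10 microM.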
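Also: spheroids exposed to compounds for seven days; 100% = DMSO vehicle control viability.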

Compound	viability, T/C
CCCS(=O)(=O)Nc1ccc(F)c(C(=O)c2c[nH]c3ncc(-c4ccc(Cl)cc4)cc23)c1F + Cc1cnc(CNC(=O)c2c(=O)c3ccc(N4CCCN(C)CC4)nc3n3c2sc2ccccc23)cn1	96%
COc1ncnc(C2CC2)c1-c1ncc2cnn(Cc3ccc(-c4nc(C(F)(F)F)cn4C(C)C)cc3)c2n1 + Cc1cnc(CNC(=O)c2c(=O)c3ccc(N4CCCN(C)CC4)nc3n3c2sc2ccccc23)cn1	69.2%
O=c1[nH]cc(F)c(=O)[nH]1 + Cc1cnc(CNC(=O)c2c(=O)c3ccc(N4CCCN(C)CC4)nc3n3c2sc2ccccc23)cn1	60.2%

Same assay, conditions: second compound 0.316 µM; first compound 3.16 µM; stronger effect = lower value; spheroids with HUVEC and MSC

Compound	viability, T/C
CCCS(=O)(=O)Nc1ccc(F)c(C(=O)c2c[nH]c3ncc(-c4ccc(Cl)cc4)cc23)c1F + Cc1cnc(CNC(=O)c2c(=O)c3ccc(N4CCCN(C)CC4)nc3n3c2sc2ccccc23)cn1	70.9%
COc1ncnc(C2CC2)c1-c1ncc2cnn(Cc3ccc(-c4nc(C(F)(F)F)cn4C(C)C)cc3)c2n1 + Cc1cnc(CNC(=O)c2c(=O)c3ccc(N4CCCN(C)CC4)nc3n3c2sc2ccccc23)cn1	60%
O=c1[nH]cc(F)c(=O)[nH]1 + Cc1cnc(CNC(=O)c2c(=O)c3ccc(N4CCCN(C)CC4)nc3n3c2sc2ccccc23)cn1	46.5%

Same assay, conditions: second compound 0.316 µM; first compound 10 µM; stronger effect = lower value; spheroids with HUVEC and MSC

Compound	viability, T/C
CCCS(=O)(=O)Nc1ccc(F)c(C(=O)c2c[nH]c3ncc(-c4ccc(Cl)cc4)cc23)c1F + Cc1cnc(CNC(=O)c2c(=O)c3ccc(N4CCCN(C)CC4)nc3n3c2sc2ccccc23)cn1	20.2%
COc1ncnc(C2CC2)c1-c1ncc2cnn(Cc3ccc(-c4nc(C(F)(F)F)cn4C(C)C)cc3)c2n1 + Cc1cnc(CNC(=O)c2c(=O)c3ccc(N4CCCN(C)CC4)nc3n3c2sc2ccccc23)cn1	62%
O=c1[nH]cc(F)c(=O)[nH]1 + Cc1cnc(CNC(=O)c2c(=O)c3ccc(N4CCCN(C)CC4)nc3n3c2sc2ccccc23)cn1	53.8%

Same assay, conditions: second compound 1 µM; first compound 0.0316 µM; stronger effect = lower value; spheroids with HUVEC and MSC

Compound	viability, T/C
CCCS(=O)(=O)Nc1ccc(F)c(C(=O)c2c[nH]c3ncc(-c4ccc(Cl)cc4)cc23)c1F + Cc1cnc(CNC(=O)c2c(=O)c3ccc(N4CCCN(C)CC4)nc3n3c2sc2ccccc23)cn1	65.9%
COc1ncnc(C2CC2)c1-c1ncc2cnn(Cc3ccc(-c4nc(C(F)(F)F)cn4C(C)C)cc3)c2n1 + Cc1cnc(CNC(=O)c2c(=O)c3ccc(N4CCCN(C)CC4)nc3n3c2sc2ccccc23)cn1	55.3%
O=c1[nH]cc(F)c(=O)[nH]1 + Cc1cnc(CNC(=O)c2c(=O)c3ccc(N4CCCN(C)CC4)nc3n3c2sc2ccccc23)cn1	66.8%

Same assay, conditions: second compound 1 µM; first compound 0.1 µM; stronger effect = lower value; spheroids with HUVEC and MSC

Compound	viability, T/C
CCCS(=O)(=O)Nc1ccc(F)c(C(=O)c2c[nH]c3ncc(-c4ccc(Cl)cc4)cc23)c1F + Cc1cnc(CNC(=O)c2c(=O)c3ccc(N4CCCN(C)CC4)nc3n3c2sc2ccccc23)cn1	71.9%
COc1ncnc(C2CC2)c1-c1ncc2cnn(Cc3ccc(-c4nc(C(F)(F)F)cn4C(C)C)cc3)c2n1 + Cc1cnc(CNC(=O)c2c(=O)c3ccc(N4CCCN(C)CC4)nc3n3c2sc2ccccc23)cn1	69.4%
O=c1[nH]cc(F)c(=O)[nH]1 + Cc1cnc(CNC(=O)c2c(=O)c3ccc(N4CCCN(C)CC4)nc3n3c2sc2ccccc23)cn1	67.2%

Same assay, conditions: second compound 1 µM; first compound 0.316 µM; stronger effect = lower value; spheroids with HUVEC and MSC

Compound	viability, T/C
CCCS(=O)(=O)Nc1ccc(F)c(C(=O)c2c[nH]c3ncc(-c4ccc(Cl)cc4)cc23)c1F + Cc1cnc(CNC(=O)c2c(=O)c3ccc(N4CCCN(C)CC4)nc3n3c2sc2ccccc23)cn1	80.2%
COc1ncnc(C2CC2)c1-c1ncc2cnn(Cc3ccc(-c4nc(C(F)(F)F)cn4C(C)C)cc3)c2n1 + Cc1cnc(CNC(=O)c2c(=O)c3ccc(N4CCCN(C)CC4)nc3n3c2sc2ccccc23)cn1	57.4%
O=c1[nH]cc(F)c(=O)[nH]1 + Cc1cnc(CNC(=O)c2c(=O)c3ccc(N4CCCN(C)CC4)nc3n3c2sc2ccccc23)cn1	79.4%

Same assay, conditions: second compound 1 µM; first compound 1 µM; stronger effect = lower value; spheroids with HUVEC and MSC

Compound	viability, T/C
CCCS(=O)(=O)Nc1ccc(F)c(C(=O)c2c[nH]c3ncc(-c4ccc(Cl)cc4)cc23)c1F + Cc1cnc(CNC(=O)c2c(=O)c3ccc(N4CCCN(C)CC4)nc3n3c2sc2ccccc23)cn1	66.4%
COc1ncnc(C2CC2)c1-c1ncc2cnn(Cc3ccc(-c4nc(C(F)(F)F)cn4C(C)C)cc3)c2n1 + Cc1cnc(CNC(=O)c2c(=O)c3ccc(N4CCCN(C)CC4)nc3n3c2sc2ccccc23)cn1	63.2%
O=c1[nH]cc(F)c(=O)[nH]1 + Cc1cnc(CNC(=O)c2c(=O)c3ccc(N4CCCN(C)CC4)nc3n3c2sc2ccccc23)cn1	60.7%

Same assay, conditions: second compound 1 µM; first compound 3.16 µM; stronger effect = lower value; spheroids with HUVEC and MSC

Compound	viability, T/C
CCCS(=O)(=O)Nc1ccc(F)c(C(=O)c2c[nH]c3ncc(-c4ccc(Cl)cc4)cc23)c1F + Cc1cnc(CNC(=O)c2c(=O)c3ccc(N4CCCN(C)CC4)nc3n3c2sc2ccccc23)cn1	60.2%
COc1ncnc(C2CC2)c1-c1ncc2cnn(Cc3ccc(-c4nc(C(F)(F)F)cn4C(C)C)cc3)c2n1 + Cc1cnc(CNC(=O)c2c(=O)c3ccc(N4CCCN(C)CC4)nc3n3c2sc2ccccc23)cn1	61.4%
O=c1[nH]cc(F)c(=O)[nH]1 + Cc1cnc(CNC(=O)c2c(=O)c3ccc(N4CCCN(C)CC4)nc3n3c2sc2ccccc23)cn1	50.1%

Same assay, conditions: second compound 1 µM; first compound 10 µM; stronger effect = lower value; spheroids with HUVEC and MSC

Compound	viability, T/C
CCCS(=O)(=O)Nc1ccc(F)c(C(=O)c2c[nH]c3ncc(-c4ccc(Cl)cc4)cc23)c1F + Cc1cnc(CNC(=O)c2c(=O)c3ccc(N4CCCN(C)CC4)nc3n3c2sc2ccccc23)cn1	21.9%
COc1ncnc(C2CC2)c1-c1ncc2cnn(Cc3ccc(-c4nc(C(F)(F)F)cn4C(C)C)cc3)c2n1 + Cc1cnc(CNC(=O)c2c(=O)c3ccc(N4CCCN(C)CC4)nc3n3c2sc2ccccc23)cn1	58.4%
O=c1[nH]cc(F)c(=O)[nH]1 + Cc1cnc(CNC(=O)c2c(=O)c3ccc(N4CCCN(C)CC4)nc3n3c2sc2ccccc23)cn1	52.3%

Same assay, conditions: second compound 3.16 µM; first compound 0.0316 µM; stronger effect = lower value; spheroids with HUVEC and MSC

Compound	viability, T/C
CCCS(=O)(=O)Nc1ccc(F)c(C(=O)c2c[nH]c3ncc(-c4ccc(Cl)cc4)cc23)c1F + Cc1cnc(CNC(=O)c2c(=O)c3ccc(N4CCCN(C)CC4)nc3n3c2sc2ccccc23)cn1	55.1%
COc1ncnc(C2CC2)c1-c1ncc2cnn(Cc3ccc(-c4nc(C(F)(F)F)cn4C(C)C)cc3)c2n1 + Cc1cnc(CNC(=O)c2c(=O)c3ccc(N4CCCN(C)CC4)nc3n3c2sc2ccccc23)cn1	61.7%
O=c1[nH]cc(F)c(=O)[nH]1 + Cc1cnc(CNC(=O)c2c(=O)c3ccc(N4CCCN(C)CC4)nc3n3c2sc2ccccc23)cn1	62.1%

Same assay, conditions: second compound 3.16 µM; first compound 0.1 µM; stronger effect = lower value; spheroids with HUVEC and MSC

Compound	viability, T/C
CCCS(=O)(=O)Nc1ccc(F)c(C(=O)c2c[nH]c3ncc(-c4ccc(Cl)cc4)cc23)c1F + Cc1cnc(CNC(=O)c2c(=O)c3ccc(N4CCCN(C)CC4)nc3n3c2sc2ccccc23)cn1	62.2%
